# Experiments:
# [1] = target: CDK2/Cyclin A (Homo sapiens, UniProt P24941); experiment: Inhibition of CDK2/Cyclin A Retinoblastoma Kinase Activity; type: biochemical; details: 0.03 μM compound, Table 2
# Procedure, shortened: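 CDK2 (10 or 19 nM), insect-cell expressed, gel-filtration purified with truncated cyclin A; Rb fragment substrate; 25 μM ATP; 10 mM HEPES pH 7.4, 10 mM MgCl2; 30° C, 60 or 75 min; EDTA stop; phosphocellulose/nitrocellulose capture, phosphorimager. % inhibition vs DMSO control, no-enzyme background subtracted.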
# [2] = target: human CDK4 and genetically truncated (1-264) cyclin D3 (Homo sapiens, UniProt P11802); experiment: Inhibition of CDK4/Cyclin D Retinoblastoma Kinase Activity; type: biochemical; details: 0.03 μM compound, Table 2
# Procedure, shortened: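 The enzyme complex (5 nM), expressed in co-infected insect cells, was incubated with recombinant Rb fragment, 25 μM radiolabelled ATP and 2% DMSO at 30 °C. Reactions were stopped with EDTA after 20 minutes, or 60 minutes for tight-binding inhibitors. Apparent Ki values came from competitive inhibition fits.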
# [3] = system: HCT-116 cell line; experiment: Inhibition of cell growth, tetrazolium salt (MTT) assay; type: cell-based; details: 0.25 μM compound, HCT-116, Table 2
# Procedure, shortened: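 HCT-116 cells in McCoy's 5A medium received compound 4 h after plating (0.5% v/v DMSO) and were incubated three to five days at 37° C, 5% CO2. MTT (0.2 mg/mL final) then added for 4 h; DMSO-solubilized formazan read at 540 nm against 0.5% DMSO-treated controls.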
# human CDK4 and genetically truncated (1-264) cyclin D3, sequence (P11802 whole entry, the tested form may be a part): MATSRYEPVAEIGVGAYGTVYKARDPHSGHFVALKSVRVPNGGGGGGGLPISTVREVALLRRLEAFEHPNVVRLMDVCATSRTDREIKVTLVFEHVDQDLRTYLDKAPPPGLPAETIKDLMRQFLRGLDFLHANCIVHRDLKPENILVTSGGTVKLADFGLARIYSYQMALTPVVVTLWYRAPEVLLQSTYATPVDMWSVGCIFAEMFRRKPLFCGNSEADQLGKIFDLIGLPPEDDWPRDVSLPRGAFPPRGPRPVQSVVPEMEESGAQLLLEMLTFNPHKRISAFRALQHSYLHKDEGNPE
# human CDK4 and genetically truncated (1-264) cyclin D3, sequence (P30281 1-264 partner): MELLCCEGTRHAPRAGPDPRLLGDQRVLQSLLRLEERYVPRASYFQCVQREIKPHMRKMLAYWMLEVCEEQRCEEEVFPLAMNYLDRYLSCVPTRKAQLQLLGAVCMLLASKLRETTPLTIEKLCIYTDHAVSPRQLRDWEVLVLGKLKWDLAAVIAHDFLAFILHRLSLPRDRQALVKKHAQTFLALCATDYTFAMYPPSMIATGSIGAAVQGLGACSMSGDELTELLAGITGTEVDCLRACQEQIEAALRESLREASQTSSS
Compound,CDK2 % Inhibition At 0.03 μM [1] [%],CDK4 % Inhibition at 0.03 μM [2] [%],CDK2 % Inhibition At 0.03 μM ([1]; 0.03 µM) [%],CDK4 % Inhibition at 0.03 μM ([2]; 0.03 µM) [%],HCT-116 % Inhibition at 0.25 μM [3] [%],HCT-116 % Inhibition at 0.25 μM ([3]; 0.25 µM) [%]
CCOC(=O)NC(=O)N1CCC(Nc2nc(N)c(C(=O)c3c(F)cccc3F)s2)CC1 [Example O38],29,15,,,29,
CC(C)c1ccccc1NC(=O)N1CCC(Nc2nc(N)c(C(=O)c3c(F)cccc3F)s2)CC1 [Example O40],30,6,,,3,
COc1cc(NC(=O)N2CCC(Nc3nc(N)c(C(=O)c4c(F)cccc4F)s3)CC2)cc(OC)c1OC [Example O44],22,12,,,29,
COc1cc(NC(=O)N2CCC(Nc3nc(N)c(C(=O)c4c(F)cccc4F)s3)CC2)cc(OC)c1 [Example O45],35,17,,,32,
COc1ccc(C)cc1NC(=O)N1CCC(Nc2nc(N)c(C(=O)c3c(F)cccc3F)s2)CC1 [Example O50],37,13,,,62,
Nc1nc(NC2CCN(C(=O)Nc3ccc(Cl)c(C(F)(F)F)c3)CC2)sc1C(=O)c1c(F)cccc1F [Example O51],30,7,,,11,
Cc1cc(C)c(NC(=O)N2CCC(Nc3nc(N)c(C(=O)c4c(F)cccc4F)s3)CC2)c(C)c1 [Example O55],28,10,,,41,
Nc1nc(NC2CCN(C(=O)NCCc3ccccc3)CC2)sc1C(=O)c1c(F)cccc1F [Example O57],28,−2,,,41,
CCCCCCNC(=O)N1CCC(Nc2nc(N)c(C(=O)c3c(F)cccc3F)s2)CC1 [Example O58],34,6,,,42,
COC(=O)c1cc(NC(=O)N2CCC(Nc3nc(N)c(C(=O)c4c(F)cccc4F)s3)CC2)cc(C(=O)OC)c1 [Example O59],28,7,,,32,
COC(=O)NC(=O)N1CCC(Nc2nc(N)c(C(=O)c3c(F)cccc3F)s2)CC1 [Example O61],33,12,,,38,
Nc1nc(NC2CCN(C(=O)NC(=O)Oc3ccccc3)CC2)sc1C(=O)c1c(F)cccc1F [Example O62],36,18,,,41,
Nc1nc(NC2CCN(C(=O)Nc3cc(Cl)nc(Cl)c3)CC2)sc1C(=O)c1c(F)cccc1F [Example O64],32,7,,,37,
Nc1nc(NC2CCN(C(=O)NCCc3cccs3)CC2)sc1C(=O)c1c(F)cccc1F [Example O65],22,−7,,,44,
CC(NC(=O)N1CCC(Nc2nc(N)c(C(=O)c3c(F)cccc3F)s2)CC1)c1ccccc1 (stereo not drawn) [Example O66],,,32,−1,,36
CC(NC(=O)N1CCC(Nc2nc(N)c(C(=O)c3c(F)cccc3F)s2)CC1)c1cccc2ccccc12 (stereo not drawn) [Example O67],31,8,,,50,
CCOC(=O)C(CC(C)C)NC(=O)N1CCC(Nc2nc(N)c(C(=O)c3c(F)cccc3F)s2)CC1 (stereo not drawn) [Example O69],29,5,,,51,
CCOC(=O)CCCCCNC(=O)N1CCC(Nc2nc(N)c(C(=O)c3c(F)cccc3F)s2)CC1 [Example O70],28,7,,,52,
CCOC(=O)C(CCSC)NC(=O)N1CCC(Nc2nc(N)c(C(=O)c3c(F)cccc3F)s2)CC1 (stereo not drawn) [Example O71],30,7,,,51,
CCOC(=O)C(C)NC(=O)N1CCC(Nc2nc(N)c(C(=O)c3c(F)cccc3F)s2)CC1 (stereo not drawn) [Example O72],24,11,,,62,
CCOC(=O)CCNC(=O)N1CCC(Nc2nc(N)c(C(=O)c3c(F)cccc3F)s2)CC1 [Example O73],29,4,,,42,
CCOC(=O)C(NC(=O)N1CCC(Nc2nc(N)c(C(=O)c3c(F)cccc3F)s2)CC1)C(C)C (stereo not drawn) [Example O74],35,102,,,34,
CCOC(=O)C(Cc1ccccc1)NC(=O)N1CCC(Nc2nc(N)c(C(=O)c3c(F)cccc3F)s2)CC1 (stereo not drawn) [Example O75],25,10,,,41,
COC(=O)[C@@H](NC(=O)N1CCC(Nc2nc(N)c(C(=O)c3c(F)cccc3F)s2)CC1)C(C)C [Example O76],22,5,,,49,
COC(=O)[C@H](CC(C)C)NC(=O)N1CCC(Nc2nc(N)c(C(=O)c3c(F)cccc3F)s2)CC1 [Example O77],24,8,,,43,
COC(=O)[C@H](Cc1ccccc1)NC(=O)N1CCC(Nc2nc(N)c(C(=O)c3c(F)cccc3F)s2)CC1 [Example O78],25,14,,,47,
COC(=O)[C@H](COC(C)(C)C)NC(=O)N1CCC(Nc2nc(N)c(C(=O)c3c(F)cccc3F)s2)CC1 [Example O79],32,8,,,49,

# The next lines start with results.
CDK2 % Inhibition At 0.03 μM [1] [%],CDK4 % Inhibition at 0.03 μM [2] [%],CDK2 % Inhibition At 0.03 μM ([1]; 0.03 µM) [%],CDK4 % Inhibition at 0.03 μM ([2]; 0.03 µM) [%],Compound,HCT-116 % Inhibition at 0.25 μM [3] [%],HCT-116 % Inhibition at 0.25 μM ([3]; 0.25 µM) [%]
32,13,,,COC(=O)c1ccccc1NC(=O)N1CCC(Nc2nc(N)c(C(=O)c3c(F)cccc3F)s2)CC1 [Example O39],27,
33,1,,,Cc1ccc(NC(=O)N2CCC(Nc3nc(N)c(C(=O)c4c(F)cccc4F)s3)CC2)c(C)c1 [Example O41],26,
35,10,,,Cc1ccc(C)c(NC(=O)N2CCC(Nc3nc(N)c(C(=O)c4c(F)cccc4F)s3)CC2)c1 [Example O42],26,
31,10,,,N#Cc1cccc(NC(=O)N2CCC(Nc3nc(N)c(C(=O)c4c(F)cccc4F)s3)CC2)c1 [Example O43],12,
29,15,,,CCOC(=O)c1cccc(NC(=O)N2CCC(Nc3nc(N)c(C(=O)c4c(F)cccc4F)s3)CC2)c1 [Example O46],41,
35,14,,,CC(=O)c1cccc(NC(=O)N2CCC(Nc3nc(N)c(C(=O)c4c(F)cccc4F)s3)CC2)c1 [Example O47],35,
28,11,,,Cc1ccc(NC(=O)N2CCC(Nc3nc(N)c(C(=O)c4c(F)cccc4F)s3)CC2)cc1C [Example O48],16,
33,−1,,,Cc1cc(C)cc(NC(=O)N2CCC(Nc3nc(N)c(C(=O)c4c(F)cccc4F)s3)CC2)c1 [Example O49],20,
24,11,,,Nc1nc(NC2CCN(C(=O)Nc3ccc(Oc4ccccc4)cc3)CC2)sc1C(=O)c1c(F)cccc1F [Example O52],33,
30,11,,,CC(=O)c1ccc(NC(=O)N2CCC(Nc3nc(N)c(C(=O)c4c(F)cccc4F)s3)CC2)cc1 [Example O53],41,
34,15,,,Nc1nc(NC2CCN(C(=O)Nc3ccc4ccccc4c3)CC2)sc1C(=O)c1c(F)cccc1F [Example O54],46,
29,9,,,N#Cc1ccc(NC(=O)N2CCC(Nc3nc(N)c(C(=O)c4c(F)cccc4F)s3)CC2)cc1 [Example O56],37,
24,12,,,COC(=O)c1cccc(NC(=O)N2CCC(Nc3nc(N)c(C(=O)c4c(F)cccc4F)s3)CC2)c1 [Example O60],39,
28,4,,,Nc1nc(NC2CCN(C(=O)Nc3ccc(-c4ccccc4)cc3)CC2)sc1C(=O)c1c(F)cccc1F [Example O63],40,

# Reference: US20050101595A1, “N-containing cycloalkyl-substituted amino-thiazole derivatives and pharmaceutical compositions for inhibiting cell proliferation and methods for their use” (PFIZER INC., priority 2003, published 2005)
